Activity calls are given as the source filed them.

A short description of assay [1]: ARNT/TACC3 interaction disruptors, potency, confirmation, biochemical, AlphaScreen, cherry-picked samples (AID 651703).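 Also: His-tagged ARNT PAS-B domain paired with GST-TACC3 E629A dimer coactivator fragment; potency of inhibitors that break up the complex and lower AlphaScreen signal.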 The format is functional, Homo sapiens. (In general: Bead proximity is the source of the signal in Alpha formats.)
For assay [2], the target named is Serine/threonine-protein kinase pim-1 (Homo sapiens, UniProt P11309). The format is functional.
In assay [3] the target is Dual specificity protein kinase CLK4 (Homo sapiens, UniProt Q9HAZ1). In kind it is functional.
The target of assay [4] is Homeodomain-interacting protein kinase 2 (Homo sapiens, UniProt Q9H2X6). The format is functional.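 Also: measured within a kinome-wide kinase profiling panel, HIPK2 being one panel member.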
The target of assay [5] is Cell division cycle 7-related protein kinase (Homo sapiens, UniProt O00311). In kind it is functional.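 Also: value obtained from a kinome-wide kinase panel.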
Assay [6] deals with Mitogen-activated protein kinase kinase kinase kinase 4 (Homo sapiens, UniProt O95819). In kind it is functional.
The target of assay [7] is cAMP-dependent protein kinase catalytic subunit alpha (Homo sapiens, UniProt P17612). The format is functional.
For assay [8], the target named is Glycogen synthase kinase-3 beta (Homo sapiens, UniProt P49841). In kind it is functional.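 Also: value comes from a broad kinome profiling panel, with GSK3B as the panel member.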
For assay [9], the target named is T1, Interleukin-1 receptor-associated kinase 4 (Homo sapiens, UniProt Q9NWZ3).
T1 sequence (Q9NWZ3 whole entry): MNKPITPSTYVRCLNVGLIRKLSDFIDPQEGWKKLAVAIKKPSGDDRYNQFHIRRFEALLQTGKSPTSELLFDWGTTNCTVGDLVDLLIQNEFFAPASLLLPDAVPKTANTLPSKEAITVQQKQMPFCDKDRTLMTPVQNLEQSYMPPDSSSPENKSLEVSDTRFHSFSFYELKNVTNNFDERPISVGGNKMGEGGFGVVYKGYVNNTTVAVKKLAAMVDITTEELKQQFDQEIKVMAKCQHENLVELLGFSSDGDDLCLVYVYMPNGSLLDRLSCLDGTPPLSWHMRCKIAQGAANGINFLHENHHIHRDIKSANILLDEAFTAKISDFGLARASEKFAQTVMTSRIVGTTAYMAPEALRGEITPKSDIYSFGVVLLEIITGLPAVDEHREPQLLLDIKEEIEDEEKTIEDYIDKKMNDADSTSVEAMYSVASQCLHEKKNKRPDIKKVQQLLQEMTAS
In kind it is functional.

Assay [10] addresses T2, ATP-dependent translocase ABCB1 (Homo sapiens, UniProt P08183). Kind of assay: ABCG2 efflux pump inhibitor potency, dose response, Ig-MXP3 cells, JC-1, flow cytometry, set 2 (AID 504566).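 Also: flow cytometry median green fluorescence of retained JC-1 dye; potency of efflux pump inhibition measured as rising substrate retention.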 The format is functional. As to conditions: read-out: EC50_MICROM_. A general note: Flow cytometry measures light scatter and fluorescence of single cells or particles in a stream.
For assay [11], the target named is T2, ATP-dependent translocase ABCB1. The assay is described as follows: ABCB1 efflux inhibitor potency, dose response, Jurkat-DNR cells, JC-1, flow cytometry, set 2 (AID 504569).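 Also: potency of pump inhibitors that raise cellular JC-1 green fluorescence up to the nicardipine level.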 The format is functional. Conditions: read-out: EC50_MICROM_.
The next assay has as its target Melanocortin receptor 4 (Homo sapiens, UniProt P32245). The format is functional, cell-based.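 Also: Cell-based assay with luminescence read-out, confirmatory dose-response testing for agonist activity of biased ligands at MC4R; human U2OS cells with tagged receptor and beta-arrestin; potency of agonists that increase receptor coupling to beta-arrestin.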
In assay [12] the target is T3, DNA dC->dU-editing enzyme APOBEC-3G (Homo sapiens, UniProt Q9HC16). The assay is described as follows: SAR analysis of small molecule inhibitors of APOBEC3G DNA Deaminase via a fluorescence-based single-stranded DNA deaminase assay - Set 2. The format is functional. Conditions: read-out: IC50_Mean.
Assay [13] deals with T3, DNA dC->dU-editing enzyme APOBEC-3G. Kind of assay: APOBEC3G deaminase inhibitors, SAR follow-up, biochemical, fluorescence, single-stranded DNA substrate (AID 602136). In kind it is functional. As to conditions: read-out: IC50_Mean.
The target in assay [14] is T4, DNA dC->dU-editing enzyme APOBEC-3A (Homo sapiens, UniProt P31941). The assay is described as follows: SAR analysis of small molecule inhibitors of APOBEC3A DNA Deaminase via a fluorescence-based single-stranded DNA deaminase assay - Set 2. The format is functional. Conditions: read-out: IC50_Mean.
Assay [15] concerns the target T4, DNA dC->dU-editing enzyme APOBEC-3A. The assay is described as follows: Dose Response confirmation of small molecule APOBEC3A DNA Deaminase Inhibitors via a fluorescence-based single-stranded DNA deaminase assay. [Related pubchem assays (depositor defined):AID493011, AID493024]. In kind it is functional.
Assay [16] deals with T3, DNA dC->dU-editing enzyme APOBEC-3G. In kind it is functional.
For assay [17], the target named is T4, DNA dC->dU-editing enzyme APOBEC-3A. The assay is described as follows: SAR analysis of small molecule inhibitors of APOBEC3A DNA Deaminase via a fluorescence-based single-stranded DNA deaminase assay. In kind it is functional. Conditions: read-out: IC50_Mean.
Assay [18] has as its target Mitochondrial peptide methionine sulfoxide reductase (Bos taurus, UniProt P54149). The format is functional.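 Also: absorbance read-out, biochemical high-throughput dose-response screen for MsrA inhibitors, confirmatory; recombinant bovine MsrA coupled to E. coli TrxB with NADPH and selenocystamine; potency is for inhibitors of MsrA activity on DMSO substrate.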
The target of assay [19] is Aryl hydrocarbon receptor (Homo sapiens, UniProt P35869). Conditions: Potency.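 Also: confirmatory quantitative high-throughput screen measuring activation of the AhR signaling pathway.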
The nature of assay [20]: AlphaScreen signal interference compounds, dose response, artefact control for ARNT-TACC3 interaction inhibitor project, biochemical, luminescence, cherry-pick (AID 651705).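 Also: AlphaScreen bead proximity signal that flags compounds interfering with the detection technology; potency reflects signal decrease which marks the compound as an assay artifact.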 The format is functional.
The next assay relates to H9c2. The assay is described as follows: cells. The format is functional, cell-based. As to conditions: Rattus norvegicus, H9c2, Myocardium.
Assay [21] addresses Macrophage colony-stimulating factor 1 receptor (Homo sapiens, UniProt P07333). In kind it is functional.
Assay [22] has as its target Vascular endothelial growth factor receptor 3 (Homo sapiens, UniProt P35916). In kind it is functional.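 Also: value from a kinome-wide profiling panel, with FLT4 as the panel member.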
Assay [23] addresses T5, Receptor-type tyrosine-protein kinase FLT3 (Homo sapiens, UniProt P36888).
T5 sequence (P36888 whole entry): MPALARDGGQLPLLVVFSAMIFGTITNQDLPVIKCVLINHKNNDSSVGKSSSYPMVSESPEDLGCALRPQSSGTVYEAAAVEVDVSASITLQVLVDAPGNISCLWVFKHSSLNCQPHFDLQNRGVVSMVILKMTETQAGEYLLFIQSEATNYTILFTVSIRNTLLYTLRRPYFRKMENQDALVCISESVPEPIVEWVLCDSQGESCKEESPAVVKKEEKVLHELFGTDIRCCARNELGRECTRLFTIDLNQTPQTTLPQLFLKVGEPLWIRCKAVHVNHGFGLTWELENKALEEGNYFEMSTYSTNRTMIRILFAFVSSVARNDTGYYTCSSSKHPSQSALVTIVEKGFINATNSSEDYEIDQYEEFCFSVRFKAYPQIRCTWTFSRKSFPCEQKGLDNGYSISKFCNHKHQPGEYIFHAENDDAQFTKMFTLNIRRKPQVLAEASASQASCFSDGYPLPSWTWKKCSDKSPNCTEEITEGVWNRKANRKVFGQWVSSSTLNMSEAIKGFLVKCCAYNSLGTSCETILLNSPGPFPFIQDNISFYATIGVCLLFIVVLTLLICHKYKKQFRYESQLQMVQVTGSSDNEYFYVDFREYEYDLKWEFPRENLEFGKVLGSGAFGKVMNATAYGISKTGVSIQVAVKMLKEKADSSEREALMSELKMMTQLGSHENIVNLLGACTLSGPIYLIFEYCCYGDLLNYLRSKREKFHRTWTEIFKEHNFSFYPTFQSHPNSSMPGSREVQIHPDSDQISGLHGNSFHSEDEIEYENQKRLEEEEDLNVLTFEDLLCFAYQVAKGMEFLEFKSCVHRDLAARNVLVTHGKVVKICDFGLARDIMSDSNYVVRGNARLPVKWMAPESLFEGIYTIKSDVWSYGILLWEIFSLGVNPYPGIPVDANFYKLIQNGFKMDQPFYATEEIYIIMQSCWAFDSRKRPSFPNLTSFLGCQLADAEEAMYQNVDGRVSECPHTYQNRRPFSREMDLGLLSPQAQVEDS
In kind it is functional.

Assay [24] deals with Mast/stem cell growth factor receptor Kit (Homo sapiens, UniProt P10721). The format is functional.
The target in assay [25] is Tyrosine-protein kinase Lck (Homo sapiens, UniProt P06239). In kind it is functional.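 Also: lck was assayed as one member of a kinase panel.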
Assay [26] concerns the target Tyrosine-protein kinase ABL1 (Homo sapiens, UniProt P00519). In kind it is functional.
Assay [27] addresses Tyrosine-protein kinase Fyn (Homo sapiens, UniProt P06241). The format is functional.
Assay [28] has as its target Proto-oncogene tyrosine-protein kinase Src (Homo sapiens, UniProt P12931). In kind it is functional.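 Also: SRC entry within a kinome-wide kinase profiling panel.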
For assay [29], the target named is Tyrosine-protein kinase Blk (Homo sapiens, UniProt P51451). The format is functional.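 Also: obtained as one member of a kinome-wide kinase assay panel.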
Assay [30] addresses Vascular endothelial growth factor receptor 1 (Homo sapiens, UniProt P17948). The format is functional.
Assay [31] has as its target High affinity nerve growth factor receptor (Homo sapiens, UniProt P04629). The format is functional.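 Also: NTRK1 tested as one member of a kinome-wide profiling panel.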
Assay [32] deals with Vascular endothelial growth factor receptor 2 (Homo sapiens, UniProt P35968). In kind it is functional.
Assay [33] has as its target Tyrosine-protein kinase Lyn (Homo sapiens, UniProt P07948). In kind it is functional.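 Also: lyn as one member of a kinase panel.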

T4 sequence (P31941 whole entry): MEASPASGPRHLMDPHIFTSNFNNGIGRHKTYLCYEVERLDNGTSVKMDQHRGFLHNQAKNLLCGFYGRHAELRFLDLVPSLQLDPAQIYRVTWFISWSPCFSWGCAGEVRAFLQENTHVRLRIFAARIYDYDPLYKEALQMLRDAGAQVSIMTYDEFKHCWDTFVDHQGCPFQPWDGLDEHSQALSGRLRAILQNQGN
T3 sequence (Q9HC16 whole entry): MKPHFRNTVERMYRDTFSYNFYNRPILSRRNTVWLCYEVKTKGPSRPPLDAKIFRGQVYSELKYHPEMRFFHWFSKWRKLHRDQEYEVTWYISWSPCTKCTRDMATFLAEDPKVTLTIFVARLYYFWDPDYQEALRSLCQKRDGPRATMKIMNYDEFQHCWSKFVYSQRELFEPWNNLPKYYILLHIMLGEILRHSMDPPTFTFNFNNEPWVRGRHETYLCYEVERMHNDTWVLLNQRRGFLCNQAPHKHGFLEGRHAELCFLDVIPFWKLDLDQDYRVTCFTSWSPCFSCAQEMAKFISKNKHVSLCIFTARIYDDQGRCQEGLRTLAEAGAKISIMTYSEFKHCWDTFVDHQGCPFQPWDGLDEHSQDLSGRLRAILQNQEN
Sequence of Tyrosine-protein kinase Fyn (P06241 whole entry): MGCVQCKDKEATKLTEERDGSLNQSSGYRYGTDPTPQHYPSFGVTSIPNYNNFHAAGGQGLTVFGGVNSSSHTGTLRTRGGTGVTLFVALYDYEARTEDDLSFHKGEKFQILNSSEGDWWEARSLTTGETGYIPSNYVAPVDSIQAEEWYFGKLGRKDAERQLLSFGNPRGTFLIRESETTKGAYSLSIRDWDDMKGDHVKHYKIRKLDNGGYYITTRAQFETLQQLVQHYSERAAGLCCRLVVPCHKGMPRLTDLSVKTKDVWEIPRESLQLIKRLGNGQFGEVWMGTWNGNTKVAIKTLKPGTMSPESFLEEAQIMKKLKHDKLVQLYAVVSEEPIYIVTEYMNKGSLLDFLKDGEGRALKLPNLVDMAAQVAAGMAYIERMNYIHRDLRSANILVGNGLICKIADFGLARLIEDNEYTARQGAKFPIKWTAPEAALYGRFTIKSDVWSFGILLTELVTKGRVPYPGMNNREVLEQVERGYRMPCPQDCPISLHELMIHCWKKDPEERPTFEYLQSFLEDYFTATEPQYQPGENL
Sequence of Cell division cycle 7-related protein kinase (O00311 whole entry): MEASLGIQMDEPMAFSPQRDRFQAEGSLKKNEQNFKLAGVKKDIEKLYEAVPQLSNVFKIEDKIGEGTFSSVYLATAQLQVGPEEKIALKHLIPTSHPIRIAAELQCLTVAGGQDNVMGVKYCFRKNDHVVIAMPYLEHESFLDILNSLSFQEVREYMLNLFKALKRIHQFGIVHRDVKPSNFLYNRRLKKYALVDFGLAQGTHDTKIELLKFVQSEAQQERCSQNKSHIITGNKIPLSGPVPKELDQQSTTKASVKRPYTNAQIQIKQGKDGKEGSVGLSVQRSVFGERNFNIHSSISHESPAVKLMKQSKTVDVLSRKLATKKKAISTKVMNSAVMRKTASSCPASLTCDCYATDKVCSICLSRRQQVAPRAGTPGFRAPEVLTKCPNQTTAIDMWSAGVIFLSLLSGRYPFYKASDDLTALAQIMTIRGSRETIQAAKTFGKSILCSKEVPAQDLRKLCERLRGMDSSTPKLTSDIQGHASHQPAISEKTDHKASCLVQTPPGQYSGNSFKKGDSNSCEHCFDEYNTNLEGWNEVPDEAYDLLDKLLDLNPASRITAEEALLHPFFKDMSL
Sequence of Serine/threonine-protein kinase pim-1 (P11309 whole entry): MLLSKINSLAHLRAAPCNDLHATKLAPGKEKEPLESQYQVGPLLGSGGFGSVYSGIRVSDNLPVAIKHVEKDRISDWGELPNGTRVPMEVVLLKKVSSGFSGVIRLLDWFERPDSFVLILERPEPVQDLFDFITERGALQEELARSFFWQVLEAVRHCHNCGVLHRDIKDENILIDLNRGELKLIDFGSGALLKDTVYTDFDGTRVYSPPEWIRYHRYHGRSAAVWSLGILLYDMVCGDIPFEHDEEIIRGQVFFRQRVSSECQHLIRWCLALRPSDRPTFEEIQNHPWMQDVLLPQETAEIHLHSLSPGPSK
Sequence of Tyrosine-protein kinase ABL1 (P00519 whole entry): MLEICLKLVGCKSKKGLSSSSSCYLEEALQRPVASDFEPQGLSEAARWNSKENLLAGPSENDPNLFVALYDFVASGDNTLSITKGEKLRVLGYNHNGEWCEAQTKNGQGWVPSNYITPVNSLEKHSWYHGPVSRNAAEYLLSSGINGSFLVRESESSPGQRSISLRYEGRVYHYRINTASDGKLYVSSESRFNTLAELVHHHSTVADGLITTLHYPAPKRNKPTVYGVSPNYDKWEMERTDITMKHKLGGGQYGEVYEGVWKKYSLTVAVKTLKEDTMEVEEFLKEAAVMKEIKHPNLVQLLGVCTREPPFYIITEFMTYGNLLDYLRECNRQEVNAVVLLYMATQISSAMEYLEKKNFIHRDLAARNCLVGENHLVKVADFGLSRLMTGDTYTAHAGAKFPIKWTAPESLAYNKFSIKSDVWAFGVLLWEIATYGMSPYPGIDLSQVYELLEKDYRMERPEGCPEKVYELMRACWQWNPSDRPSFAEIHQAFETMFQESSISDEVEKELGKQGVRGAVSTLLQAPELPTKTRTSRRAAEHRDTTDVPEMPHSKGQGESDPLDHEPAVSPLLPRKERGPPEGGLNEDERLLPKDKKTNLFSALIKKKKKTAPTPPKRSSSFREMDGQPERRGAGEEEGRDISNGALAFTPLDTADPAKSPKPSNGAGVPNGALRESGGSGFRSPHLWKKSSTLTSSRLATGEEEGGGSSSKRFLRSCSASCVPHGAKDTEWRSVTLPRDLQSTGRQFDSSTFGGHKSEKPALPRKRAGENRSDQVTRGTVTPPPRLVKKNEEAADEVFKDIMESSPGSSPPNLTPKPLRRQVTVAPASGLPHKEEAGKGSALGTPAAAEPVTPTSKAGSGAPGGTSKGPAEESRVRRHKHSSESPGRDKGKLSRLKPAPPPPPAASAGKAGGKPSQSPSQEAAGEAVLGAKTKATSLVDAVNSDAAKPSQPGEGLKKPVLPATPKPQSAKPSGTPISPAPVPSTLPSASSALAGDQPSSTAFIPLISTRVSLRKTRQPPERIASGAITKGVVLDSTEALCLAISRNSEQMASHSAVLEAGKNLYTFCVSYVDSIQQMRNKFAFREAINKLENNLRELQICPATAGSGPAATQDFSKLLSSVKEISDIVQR
T2 sequence (P08183 whole entry): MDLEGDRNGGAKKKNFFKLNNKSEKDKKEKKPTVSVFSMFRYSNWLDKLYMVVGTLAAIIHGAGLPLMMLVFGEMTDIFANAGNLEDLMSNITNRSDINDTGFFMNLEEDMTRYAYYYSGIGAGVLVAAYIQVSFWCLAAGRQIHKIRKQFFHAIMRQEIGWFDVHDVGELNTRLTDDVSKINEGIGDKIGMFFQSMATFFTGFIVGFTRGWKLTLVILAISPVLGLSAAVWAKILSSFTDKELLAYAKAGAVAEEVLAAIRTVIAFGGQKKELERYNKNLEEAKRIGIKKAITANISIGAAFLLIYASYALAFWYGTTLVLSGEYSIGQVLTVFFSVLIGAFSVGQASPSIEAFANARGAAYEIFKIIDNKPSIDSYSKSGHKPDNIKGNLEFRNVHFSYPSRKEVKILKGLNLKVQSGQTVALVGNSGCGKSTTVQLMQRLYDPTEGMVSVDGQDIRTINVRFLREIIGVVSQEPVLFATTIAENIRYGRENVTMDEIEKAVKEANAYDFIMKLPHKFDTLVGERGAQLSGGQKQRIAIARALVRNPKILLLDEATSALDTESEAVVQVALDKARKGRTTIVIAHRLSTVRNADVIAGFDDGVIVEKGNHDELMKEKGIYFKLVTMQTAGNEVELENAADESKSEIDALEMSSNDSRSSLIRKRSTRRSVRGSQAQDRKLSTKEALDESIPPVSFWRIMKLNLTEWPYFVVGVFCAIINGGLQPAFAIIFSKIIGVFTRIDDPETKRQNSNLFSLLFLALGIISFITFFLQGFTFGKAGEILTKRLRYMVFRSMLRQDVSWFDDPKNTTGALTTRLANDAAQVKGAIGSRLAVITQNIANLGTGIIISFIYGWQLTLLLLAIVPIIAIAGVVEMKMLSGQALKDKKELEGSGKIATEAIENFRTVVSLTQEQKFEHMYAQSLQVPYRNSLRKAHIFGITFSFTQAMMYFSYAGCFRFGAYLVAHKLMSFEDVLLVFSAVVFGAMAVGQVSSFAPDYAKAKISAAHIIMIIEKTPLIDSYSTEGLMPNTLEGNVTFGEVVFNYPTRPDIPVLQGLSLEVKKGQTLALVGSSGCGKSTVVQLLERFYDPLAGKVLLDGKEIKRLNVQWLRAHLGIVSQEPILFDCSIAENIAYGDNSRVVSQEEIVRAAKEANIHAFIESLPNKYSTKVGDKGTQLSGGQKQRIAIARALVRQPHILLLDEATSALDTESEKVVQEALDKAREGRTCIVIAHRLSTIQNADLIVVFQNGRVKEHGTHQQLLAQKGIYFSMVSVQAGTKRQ
Sequence of Tyrosine-protein kinase Lck (P06239 whole entry): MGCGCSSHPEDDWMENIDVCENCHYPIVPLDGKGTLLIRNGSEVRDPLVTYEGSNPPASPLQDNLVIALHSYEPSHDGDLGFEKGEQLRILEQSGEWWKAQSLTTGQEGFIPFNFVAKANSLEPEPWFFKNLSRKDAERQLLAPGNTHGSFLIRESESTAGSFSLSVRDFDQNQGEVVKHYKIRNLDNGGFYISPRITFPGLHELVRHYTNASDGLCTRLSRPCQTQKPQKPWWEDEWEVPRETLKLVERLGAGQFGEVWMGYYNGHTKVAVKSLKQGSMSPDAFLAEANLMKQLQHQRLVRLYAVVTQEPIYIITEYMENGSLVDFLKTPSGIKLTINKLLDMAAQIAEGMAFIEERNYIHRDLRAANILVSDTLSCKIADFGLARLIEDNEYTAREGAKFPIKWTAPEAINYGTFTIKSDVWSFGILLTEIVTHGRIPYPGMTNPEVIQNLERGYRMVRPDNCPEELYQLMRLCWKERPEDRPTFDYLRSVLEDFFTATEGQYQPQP

For the compound `N=C(NNS(=O)(=O)c1cc(C(F)(F)F)cc(C(F)(F)F)c1)c1ccccn1`, the AC50 (in general, the concentration giving half of the maximal activity seen) in assay [1] is 104000 nM (active).

For the compound `O=C(NCc1ccccc1)c1c[nH]n2c(=O)cc(-c3ccncc3)nc12`, the Ki – broadly, the dissociation constant of the complex between target and ligand, obtained from inhibition or displacement – in assay [2] is 25.1 nM (active); in [3], 5.01 nM (active); in assay [4], 20 nM (active); in [5] it was 5.01 nM (active); in assay [6], 100 nM (active); in [7], 3980 nM (active). The values for the Ki in assay [8] and in [9] were 2.51 nM (active) and 6310 nM (active), respectively.

Regarding `COc1ccc(-c2cc3nc(-c4ccccc4)cc(N4CCN(C(=O)c5ccsc5)CC4)n3n2)cc1`, the EC50 was 770 nM (active) in assay [10] and 1020 nM (active) in assay [11].

For `COc1ccccc1-c1cc(NC=O)c2ncc(-c3cccc(C(F)(F)F)c3)n2c1`, the EC50 on Melanocortin receptor 4 was > 89200 nM (inactive).

With `Cc1ccc[n+](CC(=O)Nc2cc(C(F)(F)F)ccc2N2CCOCC2)c1`, the IC50 in assay [12] is 601 nM (active); in [13], 9170 nM (active); in assay [14], 26600 nM (inactive); in assay [15] it was 2880 nM (active); in [16] it was 7420 nM (active); in assay [17], 20300 nM (inactive).

On to `CCOC(=O)CC(C)(C)/C(C)=N/Nc1ccc([N+](=O)[O-])cc1[N+](=O)[O-]`, for which the IC50 in assay [18] was 155000 nM (inactive).

In the case of `O=C(O)c1cc2ccccc2cc1O`, the AC50 in assay [19] is 50100 nM (inconclusive).

For the compound `OCCNc1cc(-c2c[nH]c3ncccc23)cc(Cl)n1`, the Ki was 1580 nM (active) in assay [2]; 79.4 nM (active) in assay [4]; 2.51 nM (active) in [5]; 3.98 nM (active) in assay [6]; 158 nM (active) in [7]; 200 nM (active) in assay [8]. The Ki in [9] was 1260 nM (active).

For `Brc1ccc(-c2nn3c(-c4ccccn4)nnc3s2)o1`, the AC50 in assay [20] was 104000 nM (active). For the same compound, the IC50 in the assay with H9c2 was 14800 nM (active).

Regarding `Cc1c(-c2ccnc3cc(C(=O)O)nn23)cnn1C`, the IC50 is > 99000 nM (inactive) in assay [12] and 88900 nM (inactive) in [14].

For the compound `Nc1n[nH]c2cccc(-c3ccc(NC(=O)Nc4cccc(Cl)c4)c(F)c3)c12`, the Ki in assay [21] was 2 nM (active); in assay [22], 3.16 nM (active); in [23], 1 nM (active); in assay [24], 0.794 nM (active); in assay [25], 100 nM (active); in [26], 501 nM (active). Moreover, the Ki in assay [27] was 398 nM (active); in assay [28], 501 nM (active); in assay [29] it was 200 nM (active); in [30], 0.631 nM (active); in assay [31], 1260 nM (active); in assay [32] it was 3.16 nM (active). For the same compound, in assay [33], the Ki is 158 nM (active). For the same compound, the pKi (as a rule, the Ki on a negative log10 scale, so that one unit is a factor of ten) was determined as 8.7 in assay [21]; 8.5 in assay [22]; 9 in assay [23]; 9.1 in assay [24]; 7 in assay [25]; 6.3 in assay [26]. The pKi was found to be 6.4 in [27]; 6.7 in assay [29]; 9.2 in assay [30]; 5.9 in [31]; 8.5 in assay [32]; 6.8 in assay [33].

(Values after ChEMBL document CHEMBL1201862, “PubChem BioAssay data set” (2004).)
